Test: RP, Waters ACQUITY UPLC BEH C18, 50 × 2.1 mm, 1.7 µm, 55 °C, 0.4 mL/min, estimated dead time 0.28 min; A: 40% water + 60% acetonitrile + 0.1% acetic acid + 10 mM ammonium acetate; B: 10% acetonitrile + 90% isopropanol + 0.1% acetic acid + 10 mM ammonium acetate; gradient (min/%B) 0/40 2/43 2.1/50 12/54 12.1/70 18/99 19/99
Settings: stereoisomer not certain

Row | Structure (SMILES) | LC retention time
1 | CC12CCC3C(CCC4CC(OS(=O)(=O)O)CCC43C)C1CCC2=O (stereo not drawn) | 1 min
2 | CCCCCCCCCCCCC(O)C(=O)O (stereo not drawn) [2-hydroxymyristic acid] | 0.92 min
3 | CCCCCC=CCC=CCCCCCCCC(=O)OC(COC(=O)CCCCCCCCCCCCCCC)COP(=O)([O-])OCC[N+](C)(C)C (stereo not drawn) [PC(16:0/18:2)] | 7 min
4 | CCCCCCCC/C=C\CCCCCCCCCCCC(=O)O [cis-13-docosenoic acid] | 4 min
5 | CCCCCCCCCCCC(=O)O [lauric acid] | 1 min
6 | CCCCC/C=C\C/C=C\CCCCCCCC(=O)O [linoleic acid] | 2 min
7 | C=CCCCCCCCCC(=O)O [undecylenic acid] | 1 min

Next, values leading:

Row | LC retention time | Structure (SMILES)
8 | 1.35 min | CCCCCCCCCCCCCCCC(=O)OCC(O)COP(=O)([O-])OCC[N+](C)(C)C (stereo not drawn) [LPC(16:0/0:0)]
9 | 8 min | CCCCCC=CCC=CCC=CCC=CCCCC(=O)OC(COCCCCCCCCCCCCCCCC)COP(=O)([O-])OCC[N+](C)(C)C (stereo not drawn) [PC(O-16:0/20:4)]
10 | 6 min | CCCCCCCCC=CCCCCCCCC(=O)OC(COC(=O)CCCCCCCCCCCCCCC)COP(=O)(O)OC1C(O)C(O)C(O)C(O)C1O (stereo not drawn) [PI(16:0/18:1)]
11 | 2 min | CCCCCC=CCC=CCC=CCC=CCCCC(=O)O [arachidonic acid]
12 | 1 min | CC(CCC(=O)O)C1CCC2C3C(O)CC4CC(O)CCC4(C)C3CC(O)C12C (stereo not drawn) [cholic acid]
13 | 1 min | CCCCCC/C=C\CCCC(=O)O [cis-5-dodecenoic acid]
